Source: patent publication US20250093263A1, “FRET-BASED ASSAYS” (The General Hospital Corporation, priority 2021, published 2025)
“And” between values parts separate entries of the source, which are not always exact repeats. Equal entries are not always repeated. Where two headings read alike, the source gives them in different places.

How the values were obtained:
[1] = target: T1, HsGluProRS (Homo sapiens, UniProt P07814); test: HsGluProRS TR-FRET in HEK293 lysate; format: binding; details: 250 nM tracer, serially diluted HEK293T lysate, anti-HsGluProRS antibodies
T1 construct: assay was developed utilizing native proteins in cell lysate or intact cells; endogenous in cells
Source text: Freshly prepared HEK293 cell lysates were serial diluted into flat-bottom, white 384-well plates (Corning 3572).
Abcam ab31531 was raised against an Abcam-proprietary, recombinant, full-length HsGluProRS protein. Proteintech 67712-1-Ig was raised against a peptide encoding HsGluProRS residues 1163-1512. Cell Signaling Technology CST45956 was raised against a peptide encoding residues surrounding HsGluProRS^P978. CTK0101 (ChromTek) anti-Rabbit-IgG secondary nanobody (single domain nanobody) was previously labeled with CoraFluor-1-Pfp and validated to bind Rabbit IgG antibodies with high affinity.
For the TR-FRET assay, HEK293T lysate was serially diluted into 384-well plates containing constant concentrations of tracer (either 250 nM MAT574 for ProRS or 250 nM MAT579 for GluRS), one of the antibodies (5 nM), and for the unlabeled antibodies, CoraFluor-1-Pfp labeled nano secondary (20 nM).

[2] = target: T2, WT Keap1 (tag-free, full-length) (Homo sapiens, UniProt Q14145); test: biochemical
[3] = target: T2, WT Keap1 (tag-free, full-length); test: Keap1 TR-FRET Assay 2 (CDDO-FITC/Cora-1-KL9)
[4] = target: T3, MtbPheRS (Mycobacterium tuberculosis phenylalanyl-tRNA synthetase) (Mycobacterium tuberculosis, UniProt P9WFU3); test: PheRS activity-based assay, MtbPheRS; format: biochemical
T3 construct: made in house; host or cells: Mycobacterium

[5] = target: T4, HscPheRS (human cytoplasmic phenylalanyl-tRNA synthetase) (Homo sapiens, UniProt Q9Y285); test: PheRS activity-based assay, HscPheRS; format: biochemical
T4 construct: made in house; host or cells: E. coli
T4 sequence (Q9Y285 1-508): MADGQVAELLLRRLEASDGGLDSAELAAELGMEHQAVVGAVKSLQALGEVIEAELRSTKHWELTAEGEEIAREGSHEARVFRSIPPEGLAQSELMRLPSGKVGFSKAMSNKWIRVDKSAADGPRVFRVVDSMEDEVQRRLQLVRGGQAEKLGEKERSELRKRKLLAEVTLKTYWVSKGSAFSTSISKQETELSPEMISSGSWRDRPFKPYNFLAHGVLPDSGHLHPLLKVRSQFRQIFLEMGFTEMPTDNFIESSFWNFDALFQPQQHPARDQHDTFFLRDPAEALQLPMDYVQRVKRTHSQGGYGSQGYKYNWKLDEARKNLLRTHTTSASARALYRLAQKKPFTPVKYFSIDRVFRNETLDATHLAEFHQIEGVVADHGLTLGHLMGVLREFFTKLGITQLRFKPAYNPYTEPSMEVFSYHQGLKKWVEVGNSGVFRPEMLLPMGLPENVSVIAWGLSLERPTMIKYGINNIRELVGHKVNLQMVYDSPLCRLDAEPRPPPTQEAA
T4 sequence (Q9NSD9 1-589 partner): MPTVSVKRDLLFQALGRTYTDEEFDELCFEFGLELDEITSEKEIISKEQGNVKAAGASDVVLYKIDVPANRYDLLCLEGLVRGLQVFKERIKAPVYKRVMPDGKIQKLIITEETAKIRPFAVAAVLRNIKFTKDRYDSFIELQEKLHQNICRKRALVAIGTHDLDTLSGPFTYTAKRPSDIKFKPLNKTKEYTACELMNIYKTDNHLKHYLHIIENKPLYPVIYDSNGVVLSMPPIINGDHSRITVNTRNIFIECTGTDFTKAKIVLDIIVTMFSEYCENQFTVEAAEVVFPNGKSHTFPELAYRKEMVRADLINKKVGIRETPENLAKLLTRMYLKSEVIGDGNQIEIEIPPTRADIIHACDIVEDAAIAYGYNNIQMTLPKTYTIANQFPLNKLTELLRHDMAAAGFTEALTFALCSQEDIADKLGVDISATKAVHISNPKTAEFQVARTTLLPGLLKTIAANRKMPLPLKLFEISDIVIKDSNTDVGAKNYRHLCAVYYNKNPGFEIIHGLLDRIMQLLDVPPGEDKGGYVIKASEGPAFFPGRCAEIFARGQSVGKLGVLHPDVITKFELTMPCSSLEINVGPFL

[6] = target: T5, Keap1 (His/GST) (Homo sapiens, UniProt Q14145); test: Keap1 TR-FRET Assay 3 (CDDO-FITC/Tb-Anti-6xHis); format: binding
[7] = target: T2, WT Keap1 (tag-free, full-length); test: biochemical; details: read-out: Assay 1: % at 100
[8] = target: T5, Keap1 (His/GST); test: biochemical
[9] = target: T6, PfcProRS (Plasmodium falciparum, UniProt Q8I5R7); test: biochemical; format: binding; details: PfcProRS KD, absence of substrates (0 μM ATP)
T6 construct: made in house; host or cells: SoluBL-21 E. coli
Procedure: (§1) A stock solution containing CoraFluor-1-Halo-labeled HT-PfcProRS or CoraFluor-1-Halo-labeled HT-HsProRS at the concentration specified for each experiment was prepared in assay buffer (50 mM Tris, pH 7.5, 20 mM KCl, 10 mM MgCl2, 0.05% Tween-20, 1 mM dithiothreitol, and 0.5 mg/mL BSA). […] Plates were mixed on an Ika MTS 2/4 Digital Microtiter Shaker at 750 rpm for 2 min, centrifuged at 1,000×g at 25° C. for 1 min. and allowed to equilibrate at room temperature for 2 h before TR-FRET measurements were taken. […] PRISM 9 (GraphPad) was used to perform non-linear regression analysis (one site—specific binding), plot dose-response curves, and calculate KD values.
(§2) A Multidrop Combi Reagent Dispenser (ThermoFisher Scientific) was used to dispense 20 μL of 2× protein solution into each well. […] Plates were mixed on an Ika MTS 2/4 Digital Microtiter Shaker at 750 rpm for 2 min, centrifuged at 1,000×g at 25° C. for I min, and allowed to equilibrate for 2 h at room temperature before TR-FRET measurements were taken.
(§3) PRISM 9 (GraphPad) was used to perform non-linear regression analysis (log(inhibitor) vs. response—Variable slope (four parameters)), plot dose-response curves, and calculate iC50 values.
(§4) Test compounds were dispensed in duplicate, triplicate, or sextuplicate dose-response format using a D300 digital dispenser (Hewlett Packard). […] Plates were mixed on an Ika MTS 2/4 Digital Microtiter Shaker at 750 rpm for 2 min, centrifuged at 1,000×g at 25° C. for 1 min, and allowed to equilibrate for 2 h at room temperature.
(§5) GraphPad PRISM was used to perform non-linear regression (log(inhibitor) vs. response—Variable slope (four parameters)), plot dose-response curves, and calculate IC50 values.
(§6) This assay was generally conducted in the same manner as the CoraFluor-1-Halo format with minor differences. […] Each well was supplemented with 1 nM CoraFluor-1-Pfp-labeled anti-His6 antibody before the 2 h incubation.
(§7) TR-FRET measurements were acquired in kinetic mode (1 read every ˜45 s) for at least 10 min.

[10] = target: T7, HsProRS (Homo sapiens, UniProt P07814); test: TR-FRET ProRS ligand displacement / saturation binding assay, HsProRS; details: absence of substrates; read-out: HsProRS (KD [nM]) −
T7 construct: made in house; host or cells: SoluBL-21 E. coli
T7 sequence (P07814 996-1512): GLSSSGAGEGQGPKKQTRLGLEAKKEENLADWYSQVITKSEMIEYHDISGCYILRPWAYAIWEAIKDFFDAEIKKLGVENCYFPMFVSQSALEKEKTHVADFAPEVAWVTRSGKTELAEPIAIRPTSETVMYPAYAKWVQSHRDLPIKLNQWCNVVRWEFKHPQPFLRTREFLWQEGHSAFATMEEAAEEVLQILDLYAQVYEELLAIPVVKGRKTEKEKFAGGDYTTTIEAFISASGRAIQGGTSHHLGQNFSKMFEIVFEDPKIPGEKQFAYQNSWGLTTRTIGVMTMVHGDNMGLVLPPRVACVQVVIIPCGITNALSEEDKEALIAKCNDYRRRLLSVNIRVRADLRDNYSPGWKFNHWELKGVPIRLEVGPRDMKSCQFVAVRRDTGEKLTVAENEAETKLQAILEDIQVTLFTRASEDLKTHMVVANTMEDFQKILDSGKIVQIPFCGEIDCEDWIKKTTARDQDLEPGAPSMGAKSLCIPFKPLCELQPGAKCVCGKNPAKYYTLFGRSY
Procedure: as §1, §2, §3, §4, §5, §6, §7

[11] = pH 7.4, 1-octanol / sodium phosphate buffer

T2 sequence (Q14145 whole entry): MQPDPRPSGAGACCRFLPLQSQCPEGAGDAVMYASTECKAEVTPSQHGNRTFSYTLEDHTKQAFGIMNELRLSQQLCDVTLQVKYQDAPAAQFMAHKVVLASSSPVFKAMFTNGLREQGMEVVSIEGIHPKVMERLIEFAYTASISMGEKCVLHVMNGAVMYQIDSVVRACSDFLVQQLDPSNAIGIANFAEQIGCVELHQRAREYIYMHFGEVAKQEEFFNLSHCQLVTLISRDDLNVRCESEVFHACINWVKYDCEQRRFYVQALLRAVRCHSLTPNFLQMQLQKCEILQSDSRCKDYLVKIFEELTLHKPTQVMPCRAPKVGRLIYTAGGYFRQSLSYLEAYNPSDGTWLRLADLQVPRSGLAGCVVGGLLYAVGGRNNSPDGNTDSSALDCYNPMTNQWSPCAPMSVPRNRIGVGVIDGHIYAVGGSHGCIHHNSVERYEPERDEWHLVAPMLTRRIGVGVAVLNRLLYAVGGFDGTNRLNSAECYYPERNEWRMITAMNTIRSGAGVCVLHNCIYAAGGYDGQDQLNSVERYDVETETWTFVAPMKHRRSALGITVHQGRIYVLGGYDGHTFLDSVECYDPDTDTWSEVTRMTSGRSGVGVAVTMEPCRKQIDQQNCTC
T3 sequence (P9WFU3 whole entry): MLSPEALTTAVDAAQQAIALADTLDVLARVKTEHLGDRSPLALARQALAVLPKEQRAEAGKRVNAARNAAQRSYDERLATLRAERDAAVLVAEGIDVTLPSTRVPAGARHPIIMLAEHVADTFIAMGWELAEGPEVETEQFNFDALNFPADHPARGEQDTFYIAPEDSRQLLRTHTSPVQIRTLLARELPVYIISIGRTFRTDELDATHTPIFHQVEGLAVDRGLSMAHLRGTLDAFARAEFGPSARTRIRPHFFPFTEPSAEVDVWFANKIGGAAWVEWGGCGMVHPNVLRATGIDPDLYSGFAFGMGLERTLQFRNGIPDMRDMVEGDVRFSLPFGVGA
T3 sequence (P9WFU1 whole entry, further chain): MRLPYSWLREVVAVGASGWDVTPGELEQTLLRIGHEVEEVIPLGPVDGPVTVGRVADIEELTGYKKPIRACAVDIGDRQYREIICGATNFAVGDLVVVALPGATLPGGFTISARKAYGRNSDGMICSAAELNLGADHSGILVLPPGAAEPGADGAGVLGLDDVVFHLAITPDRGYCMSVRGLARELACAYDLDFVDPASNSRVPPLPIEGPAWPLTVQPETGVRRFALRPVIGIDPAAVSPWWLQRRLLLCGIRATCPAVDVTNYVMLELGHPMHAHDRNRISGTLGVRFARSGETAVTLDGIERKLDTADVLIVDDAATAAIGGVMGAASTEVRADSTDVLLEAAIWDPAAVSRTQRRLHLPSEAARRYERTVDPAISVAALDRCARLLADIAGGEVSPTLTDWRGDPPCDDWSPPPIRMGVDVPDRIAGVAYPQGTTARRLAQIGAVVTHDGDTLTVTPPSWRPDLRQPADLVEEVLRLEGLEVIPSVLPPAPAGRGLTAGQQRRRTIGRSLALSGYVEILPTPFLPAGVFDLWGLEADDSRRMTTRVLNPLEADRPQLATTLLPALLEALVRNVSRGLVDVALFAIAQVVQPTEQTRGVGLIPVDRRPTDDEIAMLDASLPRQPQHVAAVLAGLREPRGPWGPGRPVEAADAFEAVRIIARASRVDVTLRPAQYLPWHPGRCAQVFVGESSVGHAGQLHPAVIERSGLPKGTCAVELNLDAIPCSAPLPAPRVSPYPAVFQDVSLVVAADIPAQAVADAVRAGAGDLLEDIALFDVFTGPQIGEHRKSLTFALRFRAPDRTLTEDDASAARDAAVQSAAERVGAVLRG
T5 sequence (Q14145 whole entry): as the sequence (Q14145 whole entry) above
T1 sequence (P07814 whole entry): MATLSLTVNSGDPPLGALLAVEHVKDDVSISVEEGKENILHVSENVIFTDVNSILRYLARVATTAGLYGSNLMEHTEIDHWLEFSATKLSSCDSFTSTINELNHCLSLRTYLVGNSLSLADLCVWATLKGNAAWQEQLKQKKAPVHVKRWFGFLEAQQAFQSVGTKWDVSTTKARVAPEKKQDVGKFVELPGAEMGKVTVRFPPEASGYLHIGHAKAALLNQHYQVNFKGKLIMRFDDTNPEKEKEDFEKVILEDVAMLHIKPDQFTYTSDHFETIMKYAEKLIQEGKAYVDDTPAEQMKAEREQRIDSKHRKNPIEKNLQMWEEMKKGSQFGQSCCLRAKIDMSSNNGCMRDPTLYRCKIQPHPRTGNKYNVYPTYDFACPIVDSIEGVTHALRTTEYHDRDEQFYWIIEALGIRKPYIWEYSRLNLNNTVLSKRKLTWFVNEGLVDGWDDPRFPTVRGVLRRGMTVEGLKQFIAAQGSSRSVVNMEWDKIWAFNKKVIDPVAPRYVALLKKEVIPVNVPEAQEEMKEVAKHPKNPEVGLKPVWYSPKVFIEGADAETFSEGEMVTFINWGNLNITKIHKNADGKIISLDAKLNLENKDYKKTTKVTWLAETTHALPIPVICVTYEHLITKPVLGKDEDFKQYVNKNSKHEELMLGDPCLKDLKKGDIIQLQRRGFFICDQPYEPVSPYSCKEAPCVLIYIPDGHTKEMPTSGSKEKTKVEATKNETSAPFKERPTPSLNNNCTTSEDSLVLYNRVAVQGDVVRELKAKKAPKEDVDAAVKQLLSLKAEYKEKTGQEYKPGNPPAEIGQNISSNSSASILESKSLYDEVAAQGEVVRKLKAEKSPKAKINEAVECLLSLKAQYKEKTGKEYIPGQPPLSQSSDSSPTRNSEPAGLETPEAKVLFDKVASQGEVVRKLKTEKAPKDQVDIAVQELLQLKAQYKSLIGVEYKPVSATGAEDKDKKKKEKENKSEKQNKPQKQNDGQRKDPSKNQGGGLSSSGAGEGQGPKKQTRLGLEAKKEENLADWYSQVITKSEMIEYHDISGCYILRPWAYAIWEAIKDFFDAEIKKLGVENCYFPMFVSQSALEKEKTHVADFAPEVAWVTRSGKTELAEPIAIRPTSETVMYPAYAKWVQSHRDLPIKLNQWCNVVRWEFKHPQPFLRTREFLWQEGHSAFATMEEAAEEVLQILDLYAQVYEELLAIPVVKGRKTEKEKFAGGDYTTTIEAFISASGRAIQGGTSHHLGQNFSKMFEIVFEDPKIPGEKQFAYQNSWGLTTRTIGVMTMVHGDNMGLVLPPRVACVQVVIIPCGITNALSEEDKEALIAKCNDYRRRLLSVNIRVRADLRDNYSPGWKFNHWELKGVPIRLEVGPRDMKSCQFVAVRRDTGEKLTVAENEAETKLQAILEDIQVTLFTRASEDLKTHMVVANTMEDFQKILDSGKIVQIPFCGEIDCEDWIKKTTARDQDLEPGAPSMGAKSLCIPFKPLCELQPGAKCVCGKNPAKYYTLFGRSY
T6 sequence (Q8I5R7 249-746): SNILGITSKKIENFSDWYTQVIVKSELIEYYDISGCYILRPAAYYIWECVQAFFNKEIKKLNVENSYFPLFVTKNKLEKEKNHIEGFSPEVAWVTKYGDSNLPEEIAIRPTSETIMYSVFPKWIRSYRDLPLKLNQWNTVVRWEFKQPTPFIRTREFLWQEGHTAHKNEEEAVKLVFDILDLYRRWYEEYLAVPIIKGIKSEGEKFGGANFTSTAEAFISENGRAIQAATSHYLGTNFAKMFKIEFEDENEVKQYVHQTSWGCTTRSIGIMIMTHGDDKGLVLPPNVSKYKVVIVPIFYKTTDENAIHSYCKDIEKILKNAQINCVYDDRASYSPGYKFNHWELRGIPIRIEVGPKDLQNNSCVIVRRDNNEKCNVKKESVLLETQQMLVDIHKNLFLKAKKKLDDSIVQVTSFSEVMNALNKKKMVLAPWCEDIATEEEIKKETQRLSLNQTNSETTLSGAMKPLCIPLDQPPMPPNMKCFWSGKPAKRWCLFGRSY

Compound: Nc1ncnc2c1ncn2[C@@H]1O[C@H](CN(CCCCCCOCCOCCNC(=O)c2ccc(C(=O)O)c(-c3c4ccc(=O)cc-4oc4cc(O)ccc34)c2)S(=O)(=O)NC(=O)[C@@H](N)CCC(=O)O)[C@@H](O)[C@H]1O [MAT579, 4-((2-(2-((6-((N-(L-glutamyl)sulfamoyl)(((2R,3S,4R,5R)-5-(6-amino-9H-purin-9-yl)-3,4-dihydroxytetrahydrofuran-2-yl)methyl)amino)hexyl)oxy)ethoxy)ethyl)carbamoyl)-2-(6-hydroxy-3-oxo-3H-xanthen-9-yl)benzoic acid]
- TR-FRET signal [1]: No TR-FRET signal was observed

Compound: CC1(C)CC[C@]2(C(=O)NCCCOCCOCCOCCCNC(=S)Nc3ccc(-c4c5ccc(=O)cc-5oc5cc(O)ccc45)c(C(=O)O)c3)CC[C@]3(C)[C@H](C(=O)C=C4[C@@]5(C)C=C(C#N)C(=O)C(C)(C)[C@@H]5CC[C@]43C)[C@@H]2C1 [CDDO-FITC, 5-(3-(1-((4aS,6aR,6bS,8aR,12aS,14aR,14bS)-11-cyano-2,2,6a,6b,9,9,12a-heptamethyl-10,14-dioxo-1,3,4,5,6,6a,6b,7,8,8a,9,10,12a,14,14a,14b-hexadecahydropicen-4a(2H)-yl)-1-oxo-6,9,12-trioxa-2-azapentadecan-15-yl)thioureido)-2-(6-hydroxy-3-oxo-3H-xanthen-9-yl)benzoic acid]
- Kd [2]: 164 nM
- Kd ([3]; Kd of CDDO-FITC, saturation binding at fixed Cora-1-KL9 and Keap1, one-site model): 164 ± 37.1 nM

Compound: Nc1ncnc2c1ncn2[C@@H]1O[C@H](CNS(=O)(=O)NC(=O)[C@@H](N)Cc2ccccc2)[C@@H](O)[C@H]1O [PheSNA, (S)-amino-N-(N-(((2R,3S,4R,5R)-5-(6-amino-9H-purin-9-yl)-3,4-dihydroxytetrahydrofuran-2-y)methyl)sulfamoyl)-3-phenylpropanamide]
- IC50 [4]: 2000 nM
- IC50 [5]: 140 nM

Compound: (S)-2-amino-N-(N-(((2R,3S,4R,5R)-S-(6-amino-9H-purin-9-yl)-3,4-dihydroxytetrahydrofuran-2-yl)methyl)-N-(6-(2-(2-aminoethoxy)ethoxy)hexyl)sulfamoyl)-3-phenylpropanamide [MAT581]
- IC50 ([4]; phenylalanine 100 μM, ATP 200 μM): 206000 nM

Compound: Cc1sc2c(c1C)C(c1ccc(Cl)cc1)=NC(CC(=O)NCCCOCCOCCOCCCNC(=O)[C@]13CCC(C)(C)C[C@H]1[C@H]1C(=O)C=C4[C@@]5(C)C=C(C#N)C(=O)C(C)(C)[C@@H]5CC[C@@]4(C)[C@]1(C)CC3)c1nnc(C)n1-2 (stereo partly drawn) [CDDO-JQ1, (4aS,6aR,6bS,8aR,12aS,14aR,14bS)-N-(1-(4-(4-chlorophenyl)-2,3,9-trimethyl-6H-thieno[3,2-f][1,2,4]triazolo[4,3-a][1,4]diazepin-6-yl)-2-oxo-7,10,13-trioxa-3-azahexadecan-16-yl)-11-cyano-2,2,6a,6b,9,9,12a-heptamethyl-10,14-dioxo-1,3,4,5,6,6a,6b,7,8,8a,9,10,12a,14,14a,14b-hexadecahydropicene-4a(2H)-carboxamide]
- IC50 [6]: 2680 nM
- inhibition at 100 µM [7]: < 5%
- IC50 [2]: 3370 nM
- Kd [2]: 1770 nM
- IC50 [8]: 495000 nM
- fold less potent than CDDO (CDDO/CDDO-Me) ([3]; Assay-2): > 250 fold and > 500 fold

Compound: Nc1ncnc2c1ncn2[C@@H]1O[C@H](CN(CCCCCCOCCOCCNC(=O)c2ccc(C(=O)O)c(-c3c4ccc(=O)cc-4oc4cc(O)ccc34)c2)S(=O)(=O)NC(=O)[C@@H]2CCCN2)[C@@H](O)[C@H]1O [MAT574, 4-((2-(2-((6-((N-(L-prolyl)sulfamoyl)(((2R,3S4R,5R)-5-(6-amino-9H-purin-9-yl)-3,4-dihydroxytetrahydrofuran-2-yl)methyl)amino)hexyl)oxy)ethoxy)ethyl)carbamoyl)-2-(6-hydroxy-3-oxo-3H-xanthen-9-yl)benzoic acid]
- Kd [9]: 2270 nM
- Kd [10]: 72.2 nM
- TR-FRET signal [1]: specific TR-FRET signal

Compound: O=C(CCCCCN1CCN2CCNC(=O)c3cccc(c3[O-])C(=O)NCCN(CCNC(=O)c3cccc(c3[O-])C1=O)CCN1CCNC(=O)c3cccc(c3[O-])C(=O)NCCN(CCNC(=O)c3cccc(c3[O-])C(=O)NCC1)CC2)NCCOCCOCCCCCCCl.[Tb+3] [Cora-1-Halo]
- log D [11]: −0.7

Compound: O=C(CCCCCN1CCN2CCNC(=O)c3cc(Cl)cc(c3[O-])C(=O)NCCN(CCNC(=O)c3cc(Cl)cc(c3[O-])C1=O)CCN1CCNC(=O)c3cc(Cl)cc(c3[O-])C(=O)NCCN(CCNC(=O)c3cc(Cl)cc(c3[O-])C(=O)NCC1)CC2)NCCOCCOCCCCCCCl.[Tb+3] [Cora-2-Halo]
- log D [11]: 0.7
